Values of other authors as cited in US20260138960A1, “A PROCESS FOR THE PREPARATION OF CRYSTALLINE FORM OF TAFAMIDIS” (BIOPHORE INDIA PHARMACEUTICALS PVT. LTD, priority 2022, published 2026).

Conditions: poorly soluble, but permeate biological membranes well

Row | biopharmaceutical classification system (BCS) class | Structure (SMILES)
1 | class II | O=C(O)c1ccc2nc(-c3cc(Cl)cc(Cl)c3)oc2c1 [Tafamidis, 2-(3,5-dichlorophenyl)-1,3-benzoxazole-6-carboxylic acid]
2 | class II | CNC[C@H](O)[C@@H](O)[C@H](O)[C@H](O)CO.O=C(O)c1ccc2nc(-c3cc(Cl)cc(Cl)c3)oc2c1 [Tafamidis meglumine]
